We go through 4 compounds from patent US20090098145A1, “METHODS AND COMPOSITIONS FOR TREATING OPHTHALMIC CONDITIONS VIA MODULATION OF MEGALIN ACTIVITY” (Sirion Therapeutics, Inc., priority 2006, published 2009).

In test [1] the test system is megalin. The test can be described thus: Megalin protein level in mouse eyecup membrane fractions by immunoblot. Format: in vivo. The note with it: MPR-treated mice compared to age-matched wild-type and abcr knockout mice; two immunoreactive bands. The method, then: FIG. 12. Illustrates megalin protein level in the eye cup from mice with different serum RBP-retinol levels. LDL receptors function to uptake RBP-retinol into RPE. RBP knockout mouse and MPR-treated mouse have lower serum RBP-retinol level. Expression of megalin in eyecup tissues from these mice were examined by immunoblot. Membrane fractions of mouse eyecups were prepared from wild-type mouse (WT), RBP knockout mouse (RBP−/−), ABCR null (abcr−/−) and MPR-treated mice (MPR). Two immunoreactive bands were detected (indicated by white arrows in the figure).
Preparation of Megalin-enriched Membranes from Whole Tissue—Sucrose density centrifugation was used to separate the membranous constituents from kidney, retina and RPE-eyecup (RPE plus choroid and sclera) samples. Following dissection, tissue samples were homogenized in a buffer containing 0.25 M sucrose (pH 7.5). The homogenates were centrifuged at 27,000×g for 20 min. The supernatant fraction was discarded and the resulting pellet (P1) was homogenized in a buffer containing 0.5% CHAPS. […]
Immunoblot Analyses—Protein samples which were used for immunoblot analyses were resuspended in SDS loading buffer. […] The membrane was washed four times, developed with ChemiGlow West Substrate (Alpha Innotech, San Leandro, Calif.) and then visualized by a luminescence imager (Fluor Chem from Alpha Innotech).

For test [2] the following is noted: in vivo; cited from earlier work.
For test [3], the target named is LDL receptors (on human RPE cells). The test can be described thus: cell-based or functional assay.
The target of test [4] is megalin (Homo sapiens, UniProt P98164). The note with it: cited from earlier work.
Chain of megalin (Homo sapiens, UniProt P98164) (P98164 26-4655, species assumed): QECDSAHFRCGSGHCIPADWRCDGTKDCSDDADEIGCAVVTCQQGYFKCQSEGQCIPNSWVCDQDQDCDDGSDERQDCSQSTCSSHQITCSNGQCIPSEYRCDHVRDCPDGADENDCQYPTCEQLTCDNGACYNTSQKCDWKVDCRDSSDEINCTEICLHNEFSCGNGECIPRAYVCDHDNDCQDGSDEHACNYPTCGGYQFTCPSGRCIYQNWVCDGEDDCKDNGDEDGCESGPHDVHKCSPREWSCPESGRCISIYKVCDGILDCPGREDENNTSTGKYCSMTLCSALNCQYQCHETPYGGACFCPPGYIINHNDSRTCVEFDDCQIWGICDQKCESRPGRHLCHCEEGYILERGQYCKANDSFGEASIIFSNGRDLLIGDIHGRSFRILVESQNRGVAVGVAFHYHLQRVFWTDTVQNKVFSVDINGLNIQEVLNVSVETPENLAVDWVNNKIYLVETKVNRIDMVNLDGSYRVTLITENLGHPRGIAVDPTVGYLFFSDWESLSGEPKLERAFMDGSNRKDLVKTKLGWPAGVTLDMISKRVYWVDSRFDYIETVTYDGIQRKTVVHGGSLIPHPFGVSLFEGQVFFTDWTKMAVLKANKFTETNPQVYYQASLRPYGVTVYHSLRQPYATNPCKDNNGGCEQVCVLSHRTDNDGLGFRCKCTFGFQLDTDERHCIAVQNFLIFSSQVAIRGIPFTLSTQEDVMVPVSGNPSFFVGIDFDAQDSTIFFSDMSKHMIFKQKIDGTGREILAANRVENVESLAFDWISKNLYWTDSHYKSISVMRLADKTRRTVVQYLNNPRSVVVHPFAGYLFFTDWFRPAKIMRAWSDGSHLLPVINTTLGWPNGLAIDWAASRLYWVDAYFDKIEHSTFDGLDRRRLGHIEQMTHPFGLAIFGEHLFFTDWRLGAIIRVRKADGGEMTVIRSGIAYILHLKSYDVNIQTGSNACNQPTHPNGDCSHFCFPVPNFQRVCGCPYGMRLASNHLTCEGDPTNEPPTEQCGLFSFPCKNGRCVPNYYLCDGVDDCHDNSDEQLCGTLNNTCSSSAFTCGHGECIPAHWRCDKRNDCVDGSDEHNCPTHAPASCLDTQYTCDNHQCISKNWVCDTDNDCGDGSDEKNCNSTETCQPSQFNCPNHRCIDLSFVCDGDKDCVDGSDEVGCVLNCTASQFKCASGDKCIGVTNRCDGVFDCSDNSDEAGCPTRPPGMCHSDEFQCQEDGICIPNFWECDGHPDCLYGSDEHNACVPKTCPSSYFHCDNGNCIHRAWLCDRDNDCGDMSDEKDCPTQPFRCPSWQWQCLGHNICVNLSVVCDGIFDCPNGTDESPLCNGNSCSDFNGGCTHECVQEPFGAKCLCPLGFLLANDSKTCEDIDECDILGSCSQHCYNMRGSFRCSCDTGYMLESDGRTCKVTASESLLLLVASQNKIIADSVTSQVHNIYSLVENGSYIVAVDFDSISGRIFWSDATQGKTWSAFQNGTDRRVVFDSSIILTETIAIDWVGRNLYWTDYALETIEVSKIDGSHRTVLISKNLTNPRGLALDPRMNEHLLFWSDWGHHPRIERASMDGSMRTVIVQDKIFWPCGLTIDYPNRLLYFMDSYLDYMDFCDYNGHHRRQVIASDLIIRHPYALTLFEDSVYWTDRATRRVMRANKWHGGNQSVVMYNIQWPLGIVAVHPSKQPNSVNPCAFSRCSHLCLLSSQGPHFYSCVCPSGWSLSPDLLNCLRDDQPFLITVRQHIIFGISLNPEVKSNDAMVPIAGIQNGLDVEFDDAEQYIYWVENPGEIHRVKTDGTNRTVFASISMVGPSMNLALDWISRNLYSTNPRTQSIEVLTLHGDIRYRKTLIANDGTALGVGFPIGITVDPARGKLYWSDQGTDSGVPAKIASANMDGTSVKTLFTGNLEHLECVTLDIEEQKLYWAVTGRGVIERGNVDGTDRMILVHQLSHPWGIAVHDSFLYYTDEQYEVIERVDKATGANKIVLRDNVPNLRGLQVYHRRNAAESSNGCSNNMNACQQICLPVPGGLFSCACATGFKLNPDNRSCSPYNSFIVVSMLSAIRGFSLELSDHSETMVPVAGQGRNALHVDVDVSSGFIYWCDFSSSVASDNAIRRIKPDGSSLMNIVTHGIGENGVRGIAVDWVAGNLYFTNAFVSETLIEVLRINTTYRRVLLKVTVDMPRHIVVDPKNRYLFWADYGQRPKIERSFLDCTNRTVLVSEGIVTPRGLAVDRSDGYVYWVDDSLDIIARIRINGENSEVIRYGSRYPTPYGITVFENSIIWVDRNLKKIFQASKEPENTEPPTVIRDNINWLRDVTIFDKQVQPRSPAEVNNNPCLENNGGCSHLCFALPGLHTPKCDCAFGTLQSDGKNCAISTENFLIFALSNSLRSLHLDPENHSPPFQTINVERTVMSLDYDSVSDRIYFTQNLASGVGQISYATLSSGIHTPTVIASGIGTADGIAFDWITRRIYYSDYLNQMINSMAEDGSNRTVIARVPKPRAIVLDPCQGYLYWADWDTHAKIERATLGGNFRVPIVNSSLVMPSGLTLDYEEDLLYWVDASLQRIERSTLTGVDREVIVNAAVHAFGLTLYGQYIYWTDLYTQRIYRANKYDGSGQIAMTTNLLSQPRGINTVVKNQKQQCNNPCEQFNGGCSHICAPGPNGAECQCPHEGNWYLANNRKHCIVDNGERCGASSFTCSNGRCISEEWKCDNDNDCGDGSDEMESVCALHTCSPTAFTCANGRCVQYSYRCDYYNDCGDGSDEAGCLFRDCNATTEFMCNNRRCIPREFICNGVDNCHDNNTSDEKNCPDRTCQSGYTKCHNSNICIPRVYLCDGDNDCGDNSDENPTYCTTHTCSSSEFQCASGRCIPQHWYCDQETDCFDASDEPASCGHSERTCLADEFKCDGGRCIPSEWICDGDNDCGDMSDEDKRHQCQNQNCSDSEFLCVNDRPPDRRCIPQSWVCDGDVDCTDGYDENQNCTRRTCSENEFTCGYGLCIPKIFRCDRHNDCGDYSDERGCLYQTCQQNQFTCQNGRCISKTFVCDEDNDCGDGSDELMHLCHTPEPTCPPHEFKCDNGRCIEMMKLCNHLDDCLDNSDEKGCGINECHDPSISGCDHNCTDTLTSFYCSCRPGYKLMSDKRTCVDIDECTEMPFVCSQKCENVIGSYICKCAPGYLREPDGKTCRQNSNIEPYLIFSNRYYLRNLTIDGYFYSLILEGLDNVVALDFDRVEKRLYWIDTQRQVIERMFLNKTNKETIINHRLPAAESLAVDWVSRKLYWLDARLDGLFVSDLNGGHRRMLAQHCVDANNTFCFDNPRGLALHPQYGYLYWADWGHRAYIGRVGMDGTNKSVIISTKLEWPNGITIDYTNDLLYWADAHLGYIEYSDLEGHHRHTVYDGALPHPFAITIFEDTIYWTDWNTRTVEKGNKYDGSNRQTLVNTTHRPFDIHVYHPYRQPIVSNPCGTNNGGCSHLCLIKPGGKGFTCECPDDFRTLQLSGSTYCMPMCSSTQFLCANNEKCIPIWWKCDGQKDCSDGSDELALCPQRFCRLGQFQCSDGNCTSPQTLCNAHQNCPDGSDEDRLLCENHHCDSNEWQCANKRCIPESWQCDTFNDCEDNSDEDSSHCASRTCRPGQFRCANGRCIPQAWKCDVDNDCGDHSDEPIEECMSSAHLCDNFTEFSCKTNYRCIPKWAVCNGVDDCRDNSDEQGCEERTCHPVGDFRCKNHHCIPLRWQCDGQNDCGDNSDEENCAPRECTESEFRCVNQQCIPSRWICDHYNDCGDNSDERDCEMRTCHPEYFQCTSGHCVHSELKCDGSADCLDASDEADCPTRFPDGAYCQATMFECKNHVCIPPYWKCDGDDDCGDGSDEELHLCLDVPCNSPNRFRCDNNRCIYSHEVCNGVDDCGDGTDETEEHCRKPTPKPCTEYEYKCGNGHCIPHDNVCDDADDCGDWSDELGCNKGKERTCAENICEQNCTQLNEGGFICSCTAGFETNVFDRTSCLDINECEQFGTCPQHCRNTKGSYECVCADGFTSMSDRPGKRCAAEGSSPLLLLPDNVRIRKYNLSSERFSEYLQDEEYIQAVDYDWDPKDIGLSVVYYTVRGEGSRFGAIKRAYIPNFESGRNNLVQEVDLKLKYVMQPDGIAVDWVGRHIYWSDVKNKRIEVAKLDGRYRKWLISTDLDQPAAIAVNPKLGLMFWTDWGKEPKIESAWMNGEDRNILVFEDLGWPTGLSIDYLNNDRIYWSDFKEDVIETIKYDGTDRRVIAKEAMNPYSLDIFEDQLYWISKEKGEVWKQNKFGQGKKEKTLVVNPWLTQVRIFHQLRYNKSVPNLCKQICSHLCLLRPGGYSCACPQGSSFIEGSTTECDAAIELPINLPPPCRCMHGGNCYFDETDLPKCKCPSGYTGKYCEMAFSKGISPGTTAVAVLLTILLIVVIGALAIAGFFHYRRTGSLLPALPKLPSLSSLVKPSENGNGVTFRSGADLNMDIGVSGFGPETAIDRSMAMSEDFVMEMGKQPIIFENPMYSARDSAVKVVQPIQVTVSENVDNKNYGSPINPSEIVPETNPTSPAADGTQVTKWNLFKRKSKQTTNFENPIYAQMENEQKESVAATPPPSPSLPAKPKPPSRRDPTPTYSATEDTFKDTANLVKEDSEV
Test [5] concerns the target VLDL receptor (Homo sapiens, UniProt P98155). The note with it: cited from earlier work.
The target in test [6] is LDL receptor (Homo sapiens, UniProt P01130). To be noted: cited from earlier work.
Test [7] concerns the target gp330 (Rattus norvegicus, UniProt P98158). The note with it: cited from earlier work.
Test [8] has as its target LRP (Homo sapiens, UniProt Q07954). The note with it: cited from earlier work.
The test system of test [9] is human RPE cells. The test can be described thus: Uptake of Alexa Fluor 488-labelled RBP* and IRBP* by RPE cells with and without RAP (fluorescence microscopy, retinyl esters by HPLC). Format: cell-based. The method, then: FIG. 13. Illustrates uptake of RBP- and IRBP-retinol into human RPE. Holo-RBP and IRBP were covalently labeled with a fluorescent probe (Alexa Fluor 488). The labeled proteins (RBP* and IRBP*) were added to either the basal (RBP*) or apical (IRBP*) compartments of the RPE cell culture system. Following a 1 hour incubation at 37° C., the media were removed, the cells were extensively washed and the tissues samples analyzed by fluorescence microscopy.
FIG. 14. Illustrates that RAP inhibits basal uptake of RBP-retinol and apical uptake of IRBP-retinol. Uptake of IRBP* and RBP* by RPE cells was monitored before (panels A and B, respectively) and after (panels D and E, respectively) treatment with the LDL receptor antagonist, RAP. […] To ensure that retinol was also taken into the RPE cells, the cells were washed, collected and analyzed for retinoid content by HPLC. Uptake of retinol into RPE cells results in rapid esterification resulting in retinyl ester formation.

The test system of test [10] is human RPE cells. The test can be described thus: Uptake of RBP-retinol in human RPE cell cultures after antibody or RAP blocking (HPLC of intracellular atRE and atROL). Format: cell-based. To be noted: RAP added to basal chamber, 2 hours at 4° C.; RBP-retinol (10 μM) in basal media; vs pre-immune rabbit IgG.
[11] abbreviates: RAP treatment, fluorescence microscopy.

Regarding `COc1ccc(NC(=O)\C=C(C)/C=C/C=C(C)\C=C\C2=C(C)CCCC2(C)C)cc1` (stereo in doubt) [MPR, 4-methoxyphenylretinamide], the “expression of megalin-immunoreactive proteins in eyecup” value in test [1] was “reduced expression”. Also, in [2], the “retinol and RBP levels in serum” value was “reduce”.
Turning to “receptor-associated protein (RAP) obtained from Oxford Biomedical Research”, in [3], the inhibition of basal RBP-retinol uptake in human RPE cultures (HPLC of intracellular atRE and atROL) after RAP pre-treatment is 47%; the reduction in retinol uptake as measured by retinyl ester content (HPLC) after RAP pre-treatment was 50%.
For gentamicin [reference compound], in test [4], the “molecules bound per megalin protein” value is given as 60-100.
“RAP: 39 kDa receptor-associated protein, chaperone and universal ligand binding antagonist of LDL receptor gene family members”: the “binding sites occupied on the receptor protein megalin” value in test [4] is “two”. For the same compound, the dissociation constant (Kd) in [5] is 0.7 nM; in [6] it was 500 nM; in [7], 8 nM; in test [8] it was 4 nM. Besides, the “reduction in retinol uptake as measured by retinyl ester content” value in [9] (RAP pre-treatment, retinyl esters by HPLC) is listed as about 50%. Besides, the “apical uptake of IRBP*” value in test [9] (setting [11]) is on record as “completely suppressed”. Further, the “basal uptake of RBP*” value in test [9] (setting [11]) is “completely suppressed”. The “inhibition of RBP-retinol uptake by RAP” value in test [10] was found to be 47%.

In general, Kd refers to the free concentration of one partner at which half of the binding sites on the other are occupied at equilibrium, for simple one-to-one binding.
